The text below walks through data of PubChem BioAssay AID248 (DTP/NCI, 2004).

For the experiment, the system named is L1210 leukemia ip in BDF1 mice, survival T/C. Nature of the experiment: NCI In Vivo Anticancer Drug Screen. Data for tumor model L1210 Leukemia (intraperitoneal) in B6D2F1 (BDF1) mice. The settings on record: endpoint: mean survival time, higher = longer survival. Put shortly: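 Tumor cells were implanted, animals were treated, and survival was followed. The result divides the treated measurement by the vehicle-control measurement.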

Where [1] appears, read: dose: 50.0 mg/kg/injection, schedule: Q01DX001 (ip), vehicle: carboxymethylcellulose (CMC).
Where [2] appears, read: dose: 100.0 mg/kg/injection, schedule: Q01DX001 (ip), vehicle: carboxymethylcellulose (CMC).
Where [3] appears, read: dose: 200.0 mg/kg/injection, schedule: Q01DX001 (ip), vehicle: carboxymethylcellulose (CMC).
Setting [4] is: dose: 100.0 mg/kg/injection, schedule: Q04DX002 (ip), vehicle: Klucel (hydroxypropylcellulose) (HPC).
Where [5] appears, read: dose: 200.0 mg/kg/injection, schedule: Q04DX002 (ip), vehicle: Klucel (hydroxypropylcellulose) (HPC).
The mark [6] stands for this setting: dose: 400.0 mg/kg/injection, schedule: Q04DX002 (ip), vehicle: Klucel (hydroxypropylcellulose) (HPC).
[7] abbreviates: dose: 100.0 mg/kg/injection, schedule: Q01DX001 (ip), vehicle: saline with Tween-80.
[8] abbreviates: dose: 25.0 mg/kg/injection, schedule: Q01DX009 (ip), vehicle: saline.
Where [9] appears, read: dose: 50.0 mg/kg/injection, schedule: Q01DX009 (ip), vehicle: saline.
[10] abbreviates: dose: 100.0 mg/kg/injection, schedule: Q01DX009 (ip), vehicle: saline.
The mark [11] stands for this setting: dose: 100.0 mg/kg/injection, schedule: Q04DX003 (ip), vehicle: saline.
Where [12] appears, read: dose: 25.0 mg/kg/injection, schedule: Q04DX003 (ip), vehicle: saline.
Setting [13] is: dose: 50.0 mg/kg/injection, schedule: Q04DX003 (ip), vehicle: saline.
The mark [14] stands for this setting: dose: 100.0 mg/kg/injection, schedule: Q01DX009 (ip), vehicle: Klucel (hydroxypropylcellulose) (HPC).
Setting [15] is: dose: 200.0 mg/kg/injection, schedule: Q01DX009 (ip), vehicle: Klucel (hydroxypropylcellulose) (HPC).
Where [16] appears, read: dose: 400.0 mg/kg/injection, schedule: Q01DX009 (ip), vehicle: Klucel (hydroxypropylcellulose) (HPC).

Values joined by “and” are separate entries in the source; they are usually repeats but may differ in a detail not shown here. Equal entries are not always repeated. Toxic doses and inconclusive results are not listed.

`O=NN(CCCl)C(=O)NC1CCC(C(=O)O)CC1` (stereo not drawn): the T/C (dose: 6.0 mg/kg/injection, schedule: Q01DX001 (ip), vehicle: saline with Tween-80) was 168 % of control; the T/C (dose: 9.0 mg/kg/injection, schedule: Q01DX001 (ip), vehicle: saline with Tween-80) was 195 % of control and 215 % of control; the T/C (dose: 13.0 mg/kg/injection, schedule: Q01DX001 (ip), vehicle: saline with Tween-80) was 275 % of control and 154 % of control and 260 % of control; the T/C (dose: 20.0 mg/kg/injection, schedule: Q01DX001 (ip), vehicle: saline with Tween-80) was 291 % of control and 409 % of control; the T/C (dose: 30.0 mg/kg/injection, schedule: Q01DX001 (ip), vehicle: saline with Tween-80) is 310 % of control; the T/C (dose: 45.0 mg/kg/injection, schedule: Q01DX001 (ip), vehicle: saline with Tween-80) is 544 % of control. In addition, the T/C runs as follows: (dose: 46.0 mg/kg/injection, schedule: Q01DX001 (ip), vehicle: saline with Tween-80) 311 % of control and 191 % of control; (dose: 67.5 mg/kg/injection, schedule: Q01DX001 (ip), vehicle: saline with Tween-80) 525 % of control; (dose: 93.0 mg/kg/injection, schedule: Q01DX001 (ip), vehicle: saline with Tween-80) 209 % of control and 101 % of control; (dose: 139.0 mg/kg/injection, schedule: Q01DX001 (ip), vehicle: saline with Tween-80) 91 % of control.
For `O=C(O)C1(Br)c2ccccc2-c2ccccc21`, the T/C is 100 % of control under setting [1]; 100 % of control (dose: 50.0 mg/kg/injection, schedule: Q04DX003 (ip), vehicle: Klucel (hydroxypropylcellulose) (HPC)); 100 % of control under setting [2]; 94 % of control (dose: 100.0 mg/kg/injection, schedule: Q04DX003 (ip), vehicle: Klucel (hydroxypropylcellulose) (HPC)); 96 % of control under setting [3]; 96 % of control (dose: 200.0 mg/kg/injection, schedule: Q04DX003 (ip), vehicle: Klucel (hydroxypropylcellulose) (HPC)). In addition, the T/C (dose: 400.0 mg/kg/injection, schedule: Q01DX001 (ip), vehicle: carboxymethylcellulose (CMC)) is 105 % of control.
On to `O=C(NC1CCCCC1)c1ccc(C(=O)NC2CCCCC2)cc1`, for which the T/C was 94 % of control under setting [4], 102 % of control under setting [5] and 91 % of control under setting [6].
Turning to `OCC(O)C(O)C(O)C1COC(CBr)O1` (stereo not drawn), the T/C under setting [4] was 90 % of control, the T/C under setting [5] was 93 % of control and the T/C under setting [6] was 108 % of control.
For the molecule `CN(C)c1nc(N)c(N)c(N)n1`, the T/C by setting is: (dose: 25.0 mg/kg/injection, schedule: Q01DX001 (ip), vehicle: saline with Tween-80) 101 % of control; (dose: 50.0 mg/kg/injection, schedule: Q01DX001 (ip), vehicle: saline with Tween-80) 107 % of control; under setting [7], 96 % of control and 97 % of control.
Regarding `O=C(O)/C=C(/C(=O)O)c1cccn1Cc1ccccc1`, the T/C (dose: 25.0 mg/kg/injection, schedule: Q01DX009 (ip), vehicle: saline with Tween-80) is 110 % of control; the T/C (dose: 50.0 mg/kg/injection, schedule: Q01DX009 (ip), vehicle: saline with Tween-80) is 100 % of control; the T/C (dose: 100.0 mg/kg/injection, schedule: Q01DX009 (ip), vehicle: saline with Tween-80) is 102 % of control.
Consider `CCC(=O)NCC1(c2ccccc2)CCN(CC2COc3ccccc3O2)CC1` (stereo not drawn), for which the T/C reads like this: under setting [8], 108 % of control; under setting [9], 100 % of control; under setting [10], 93 % of control; under setting [11], 102 % of control.
On to `CCC1(CC2CCCN(C)C2)c2ccccc2Sc2ccccc21` (stereo not drawn), for which the T/C is 105 % of control (dose: 8.0 mg/kg/injection, schedule: Q01DX015 (ip), vehicle: carboxymethylcellulose (CMC)); 94 % of control (dose: 16.0 mg/kg/injection, schedule: Q01DX015 (ip), vehicle: carboxymethylcellulose (CMC)); 91 % of control (dose: 32.0 mg/kg/injection, schedule: Q01DX015 (ip), vehicle: carboxymethylcellulose (CMC)); 103 % of control and 110 % of control (dose: 64.0 mg/kg/injection, schedule: Q01DX015 (ip), vehicle: carboxymethylcellulose (CMC)).
As for `COc1nccnn1`, the T/C was 93 % of control under setting [7]; 103 % of control (dose: 200.0 mg/kg/injection, schedule: Q01DX001 (ip), vehicle: saline with Tween-80); 101 % of control (dose: 400.0 mg/kg/injection, schedule: Q01DX001 (ip), vehicle: saline with Tween-80).
On to `N=C(N)S/C=C/CSC(=N)N`, for which the T/C by setting is: (dose: 10.0 mg/kg/injection, schedule: Q01DX001 (ip), vehicle: saline) 90 % of control; (dose: 20.0 mg/kg/injection, schedule: Q01DX001 (ip), vehicle: saline) 95 % of control; (dose: 40.0 mg/kg/injection, schedule: Q01DX001 (ip), vehicle: saline) 95 % of control; (dose: 80.0 mg/kg/injection, schedule: Q01DX001 (ip), vehicle: saline) 97 % of control.
As to `Cc1cc(C(=O)C(C#N)=Nc2ccc(N(C)C)cc2)c(CN2C(=O)c3ccccc3C2=O)c(=O)n1C`, the T/C reads like this: (dose: 100.0 mg/kg/injection, schedule: Q01DX001 (ip), vehicle: water) 92 % of control; (dose: 200.0 mg/kg/injection, schedule: Q01DX001 (ip), vehicle: water) 94 % of control; (dose: 400.0 mg/kg/injection, schedule: Q01DX001 (ip), vehicle: water) 94 % of control.
`CCN(CC)CCOc1ccccc1C(=O)CCc1ccccc1`: the T/C runs as follows: (dose: 12.5 mg/kg/injection, schedule: Q01DX009 (ip), vehicle: saline) 93 % of control; under setting [8], 93 % of control; under setting [12], 99 % of control; under setting [9], 100 % of control; under setting [13], 97 % of control; under setting [11], 102 % of control.
For `N=C(N)SCc1cccc([N+](=O)[O-])c1`, the T/C (dose: 25.0 mg/kg/injection, schedule: Q04DX002 (ip), vehicle: saline with Tween-80) was 102 % of control and the T/C (dose: 50.0 mg/kg/injection, schedule: Q04DX002 (ip), vehicle: saline with Tween-80) was 102 % of control.
For `NC1=NC(CNC(=O)c2cccc([N+](=O)[O-])c2)N(c2cccc(Cl)c2)C(N)=N1` (stereo not drawn), the T/C (dose: 50.0 mg/kg/injection, schedule: Q01DX Z (ip), vehicle: methylcellulose (MC)) was 93 % of control.
With `CC1C2CCC(C2)C1N` (stereo not drawn), the T/C under setting [8] is 96 % of control; the T/C under setting [12] is 94 % of control; the T/C under setting [9] is 104 % of control; the T/C under setting [13] was 105 % of control; the T/C under setting [10] is 98 % of control; the T/C under setting [11] was 112 % of control and 92 % of control and 93 % of control. The T/C (dose: 200.0 mg/kg/injection, schedule: Q04DX003 (ip), vehicle: saline) was 93 % of control.
With `CC(C)NC(=O)Oc1ccc(Br)cc1Br`, the T/C reads like this: under setting [14], 109 % of control; under setting [15], 104 % of control; under setting [16], 113 % of control.
Consider `c1ccc(-c2ccns2)cc1`, for which the T/C reads like this: under setting [1], 89 % of control; under setting [2], 89 % of control; under setting [3], 93 % of control.
Turning to `CN(Cc1ccccc1Cl)C(=O)Nc1ccccc1`, the T/C reads like this: under setting [14], 101 % of control; under setting [15], 106 % of control; under setting [16], 101 % of control.
On to `O=C(Nc1ccc(C2=NC3CCCCC3N2)cc1)c1ccc(C(=O)Nc2ccc(C3=NC4CCCCC4N3)cc2)cc1` (stereo not drawn), for which the T/C (dose: 15.0 mg/kg/injection, schedule: Q01DX Z (ip), vehicle: carboxymethylcellulose (CMC)) is 96 % of control; the T/C (dose: 30.0 mg/kg/injection, schedule: Q01DX Z (ip), vehicle: carboxymethylcellulose (CMC)) was 92 % of control; the T/C (dose: 60.0 mg/kg/injection, schedule: Q01DX Z (ip), vehicle: carboxymethylcellulose (CMC)) is 96 % of control; the T/C (dose: 120.0 mg/kg/injection, schedule: Q01DX Z (ip), vehicle: carboxymethylcellulose (CMC)) was 103 % of control.
As for `CCCC(N)C(O)c1ccccc1` (stereo not drawn), the T/C is, setting by setting: (dose: 75.0 mg/kg/injection, schedule: Q01DX001 (ip), vehicle: saline) 102 % of control; (dose: 150.0 mg/kg/injection, schedule: Q01DX001 (ip), vehicle: saline) 100 % of control.
